Measured values published in ChEMBL document CHEMBL1201862, “PubChem BioAssay data set” (2004).
Where a name gives a salt, the structure may show the parent alone.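 Five compound concentrations were applied to cells in 96-well plates for 48 hours; endpoints were derived by simple linear interpolation of the resulting dose-response curve. GI50 is the concentration that inhibits growth by half.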 Activity calls are given as the source filed them. Cut-off read from the data, not from the text of the source: active = GI50 up to about 1.1 µM and inactive = higher.

What was measured:
Assay in all cases: growth of human tumour cells (NCI), 48 h
NCI-H460 = tested on: NCI-H460
M14 = tested on: M14
HOP-62 = tested on: HOP-62
HCC 2998 = tested on: HCC 2998
EKVX = tested on: EKVX
NCI-H23 = tested on: NCI-H23
CAKI-1 = tested on: CAKI-1
MDA-MB-435 = tested on: MDA-MB-435
U-251 = tested on: U-251
MCF7 = tested on: MCF7
KM12 = tested on: KM12
NCI-H522 = tested on: NCI-H522
DU-145 = tested on: DU-145
T47D = tested on: T47D
A549 = tested on: A549
LXFL 529 = tested on: LXFL 529
DMS-273 = tested on: DMS-273
M19-MEL = tested on: M19-MEL
DMS-114 = tested on: DMS-114

Measured: GI50

CCN(CC)CCN1C(=O)c2cccc3cc(N)cc(c23)C1=O
inactive: NCI-H460 3.98 µM | M14 13.3 µM | HOP-62 5.45 µM | HCC 2998 8.61 µM | EKVX 5.02 µM | NCI-H23 7.23 µM | CAKI-1 7.28 µM | MDA-MB-435 10.2 µM | U-251 9.48 µM | MCF7 4.39 µM | KM12 9.73 µM | NCI-H522 6.43 µM | DU-145 8.45 µM | T47D 18.7 µM | A549 5.57 µM

CCOC(=O)c1ccc(N2C(=O)Cc3ccccc3C2=O)cc1
inactive: LXFL 529 > 100 µM | DMS-273 > 100 µM | HCC 2998 > 100 µM | EKVX > 100 µM | NCI-H23 > 100 µM | U-251 > 100 µM | KM12 > 100 µM | M19-MEL > 100 µM | DMS-114 > 100 µM | A549 > 100 µM

CN(C)c1ccc(/C=C/C=C\c2cc(/C=C/C=C/c3ccc(N(C)C)cc3)[s+]c3ccccc23)cc1.[O-][Cl+3]([O-])([O-])[O-]
inactive: LXFL 529 8.26 µM | NCI-H460 > 100 µM | DMS-273 46.1 µM | M14 14.5 µM | HOP-62 > 100 µM | EKVX > 100 µM | NCI-H23 10 µM | CAKI-1 10 µM | U-251 10 µM | KM12 > 100 µM | M19-MEL 15.5 µM | NCI-H522 10 µM | DMS-114 11.1 µM | A549 > 100 µM

O=[N+]([O-])c1ccc(CSc2c3ccccc3nc3ccccc23)cc1
inactive: NCI-H460 20.6 µM | M14 4.56 µM | HOP-62 18.3 µM | HCC 2998 16.1 µM | EKVX 15.9 µM | NCI-H23 7.05 µM | CAKI-1 15.4 µM | MDA-MB-435 4.94 µM | U-251 7.28 µM | MCF7 2.51 µM | KM12 4.62 µM | NCI-H522 1.9 µM | DU-145 2.3 µM | T47D 1.85 µM | A549 23.9 µM

O=C(Nc1ccn(CCO)c(=O)n1)c1ccccc1
inactive: LXFL 529 > 100 µM | NCI-H460 > 100 µM | DMS-273 > 100 µM | M14 > 100 µM | HOP-62 > 100 µM | EKVX > 100 µM | CAKI-1 > 100 µM | U-251 > 100 µM | KM12 > 100 µM | M19-MEL > 100 µM | NCI-H522 > 100 µM | DMS-114 > 100 µM | A549 > 100 µM

CCOC(=O)/C(=C\c1c[nH]c2ccccc12)P(=O)(OCC)OCC
inactive: NCI-H460 24.5 µM | M14 39.6 µM | HOP-62 42.6 µM | HCC 2998 65.3 µM | EKVX 59.8 µM | NCI-H23 29.6 µM | CAKI-1 > 100 µM | MDA-MB-435 40.9 µM | U-251 33.8 µM | MCF7 50.8 µM | KM12 33.2 µM | NCI-H522 26.8 µM | DU-145 46.1 µM | T47D 43.8 µM | A549 40.5 µM

CCOC(=O)c1ncn2c1[nH]c(=S)c1ccccc12
inactive: LXFL 529 > 100 µM | NCI-H460 > 100 µM | DMS-273 44.1 µM | M14 > 100 µM | HOP-62 > 100 µM | HCC 2998 > 100 µM | EKVX > 100 µM | NCI-H23 > 100 µM | CAKI-1 > 100 µM | U-251 46.9 µM | KM12 > 100 µM | M19-MEL > 100 µM | NCI-H522 73.6 µM | DMS-114 49.1 µM | A549 > 100 µM

COc1ccc2nc3cc(Cl)ccc3c(Sc3ccc(NC(C)=O)cc3)c2c1
inactive: LXFL 529 7.31 µM | NCI-H460 > 26.3 µM | DMS-273 8.09 µM | M14 11.6 µM | HOP-62 > 41.7 µM | HCC 2998 2.74 µM | NCI-H23 13.8 µM | CAKI-1 > 27 µM | KM12 9.33 µM | M19-MEL 10.9 µM | NCI-H522 2.79 µM | DMS-114 6.84 µM | A549 > 53.2 µM

[N-]=[N+]=Nc1cc(=O)oc2ccccc12
inactive: LXFL 529 > 100 µM | NCI-H460 > 100 µM | DMS-273 > 100 µM | M14 > 100 µM | HOP-62 > 100 µM | NCI-H23 > 100 µM | CAKI-1 > 100 µM | U-251 > 100 µM | KM12 > 100 µM | M19-MEL > 100 µM | NCI-H522 > 100 µM | DMS-114 42.2 µM | A549 > 100 µM

O=C1C=C(NCCc2cc(Br)c(O)c(Br)c2)C(=O)c2[nH]cnc21
inactive: NCI-H460 11.1 µM | M14 24.6 µM | HOP-62 38.6 µM | HCC 2998 11.5 µM | EKVX 96.2 µM | NCI-H23 10.8 µM | CAKI-1 39.9 µM | MDA-MB-435 15.6 µM | U-251 38.3 µM | MCF7 22.9 µM | KM12 48.5 µM | NCI-H522 21.2 µM | DU-145 36.7 µM | T47D 30.3 µM | A549 32 µM

CCCCCCCCC/C=C1\CCC(CN(C)C)C1=O (stereo not drawn)
inactive: LXFL 529 1.34 µM | NCI-H460 3.43 µM | DMS-273 1.69 µM | M14 1.84 µM | HOP-62 2.08 µM | HCC 2998 3.5 µM | EKVX 2.47 µM | NCI-H23 2.44 µM | CAKI-1 2.25 µM | U-251 1.66 µM | KM12 1.64 µM | M19-MEL 1.86 µM | NCI-H522 1.95 µM | DMS-114 2.26 µM | A549 4.39 µM

O=C(O)Cc1ccc(Oc2nc3ccccc3nc2-c2cccs2)cc1
inactive: NCI-H460 50.7 µM | M14 66.4 µM | HOP-62 > 100 µM | HCC 2998 57.4 µM | EKVX 32.4 µM | NCI-H23 55.8 µM | CAKI-1 55.7 µM | MDA-MB-435 92 µM | U-251 30.5 µM | MCF7 38.5 µM | KM12 44.2 µM | NCI-H522 65.2 µM | DU-145 81.7 µM | T47D 20 µM | A549 46.7 µM

O=C(CC(=O)C1CCOC1=O)C(=O)Nc1cccc(Cl)c1 (stereo not drawn)
inactive: LXFL 529 > 100 µM | NCI-H460 > 100 µM | DMS-273 > 100 µM | M14 > 100 µM | HOP-62 > 100 µM | HCC 2998 > 100 µM | EKVX > 100 µM | NCI-H23 > 100 µM | CAKI-1 > 100 µM | U-251 > 100 µM | KM12 > 100 µM | M19-MEL > 100 µM | NCI-H522 > 100 µM | DMS-114 > 100 µM | A549 > 100 µM

COC(=O)C1CCc2c(OC)ccc(OC)c2C1=O (stereo not drawn)
inactive: LXFL 529 > 100 µM | NCI-H460 > 100 µM | DMS-273 > 100 µM | M14 > 100 µM | HOP-62 > 100 µM | HCC 2998 > 100 µM | EKVX > 100 µM | NCI-H23 > 100 µM | CAKI-1 > 100 µM | U-251 > 100 µM | KM12 > 100 µM | M19-MEL > 100 µM | NCI-H522 > 100 µM | DMS-114 > 100 µM | A549 > 100 µM

CO[C@]12CC(=O)C3(C(C[C@H]4CC5CC=C6C[C@@H](OC(C)=O)CC[C@]6(OC(C)=O)C5C[C@@]43C)C1)C1C[C@H]3[C@@H]4CC=C5C[C@@H](OC(C)=O)CC[C@]5(OC(C)=O)[C@H]4CC[C@]3(C)C12 (stereo partly drawn)
inactive: NCI-H460 16.3 µM | M14 17.5 µM | HOP-62 18.8 µM | HCC 2998 17.8 µM | EKVX 21.4 µM | NCI-H23 15.6 µM | CAKI-1 19.2 µM | MDA-MB-435 18.8 µM | U-251 17.5 µM | MCF7 17.3 µM | KM12 11.4 µM | NCI-H522 14 µM | DU-145 16.5 µM | T47D 10.9 µM | A549 21.9 µM

COC(=O)c1ccc(/C=C/C2=CC(=O)C=CC2=O)cc1
inactive: NCI-H460 23.9 µM | M14 24.7 µM | HOP-62 50.8 µM | HCC 2998 20.7 µM | EKVX 19.1 µM | NCI-H23 18.1 µM | CAKI-1 13.8 µM | MDA-MB-435 17.4 µM | U-251 17.3 µM | MCF7 8.57 µM | KM12 14.4 µM | NCI-H522 1.8 µM | DU-145 45.1 µM | T47D 6.35 µM | A549 > 63.5 µM

CC1=C(C(=O)OC2CC3CCC2(C)C3(C)C)C2Nc3ccccc3N(C)C2O1 (stereo not drawn)
inactive: NCI-H460 1.6 µM | M14 1.63 µM | HOP-62 3.84 µM | HCC 2998 1.66 µM | EKVX 5.12 µM | NCI-H23 2.39 µM | CAKI-1 2.95 µM | MDA-MB-435 1.54 µM | U-251 3.58 µM | MCF7 2.36 µM | KM12 2.43 µM | NCI-H522 1.93 µM | DU-145 1.47 µM | T47D 3.04 µM | A549 2.05 µM

c1ccc([C@H]2CN3CCSC3=N2)cc1 [LEVAMISOLE HYDROCHLORIDE]
inactive: NCI-H460 > 100 µM | M14 > 100 µM | HOP-62 > 100 µM | HCC 2998 > 100 µM | EKVX > 100 µM | NCI-H23 > 100 µM | CAKI-1 > 100 µM | MDA-MB-435 > 100 µM | U-251 > 100 µM | MCF7 > 100 µM | KM12 > 100 µM | NCI-H522 > 100 µM | DU-145 > 100 µM | T47D > 100 µM | A549 > 100 µM
